# Results taken from patent US8906953B2, “Pyrrolidine substitute flavones for the treatment of inflammatory disorders” (Piramal Enterprises Limited, priority 2010, dated 2014).
# Counter-ions that a name gives are not always drawn.
# What was measured:
# TNF-α = assay: LPS-induced TNF-α release from hPBMCs (ELISA); assay type: cell-based; conditions: Homo sapiens; LPS-stimulated hPBMCs, 5 hours; read-out: Activity (TNF-α) IC50
# Experimental: Cytokine production by lipopolysaccharides (LPS) in hPBMCs (human peripheral blood mononuclear cells) was measured as in reference, Physiol. Res. 2003, 52, 593-598, the disclosure of which is incorporated by reference for the teaching of the assay. Blood was collected from healthy donors into Potassium EDTA vacutainer tubes (BID vacutainer). The PBMC were isolated using gradient centrifugation in Histopaque-1077 solution (Sigma). Isolated PBMC were suspended in RPMI 1640 (Rosewell Park Memorial Institute) culture medium (Sigma-Aldrich Fine Chemicals, USA) containing 10% fetal bovine serum (FBS) (JRH, USA), 100 U/mL penicillin (Sigma Chemical Co. St Louis, Mo., USA) and 100 μg/mL streptomycin (Sigma Chemical Co. St Louis, Mo.). The cell concentration was adjusted to 1×10^6 cells/mL. The viability as determined by trypan blue dye exclusion was uniform Ly≧98%. The cell suspension (100 μL) was added to the wells of a 96-well culture plate. Following cell plating, 79 μL of the culture medium and 1 μL of various concentrations of test compounds (compounds of formula 1) (final concentration 0.001, 0.003, 0.005, 0.01, 0.025, 0.03, 0.05, 0.1, 0.25, 0.3 and 1 μM) dissolved in DMSO (dimethyl sulfoxide, Sigma, Mo., USA) were added to the cells. The final concentration of DMSO was adjusted to 0.5%. The vehicle (0.5% DMSO) was used as control. […] The plates were incubated for 30 minutes at 37° C. in an atmosphere of 5% CO2. Finally, 20 μL (10 μg/mL) per well of LPS, (Escherchia coli 0127:B8, Sigma Chemical Co., St. Louis, Mo.) was added to the wells of the incubated plates, for a final concentration of 1 μg/mL. The plates were incubated at 37° C. for 5 hours in an atmosphere of 5% CO2. […] Supernatants were harvested and assayed for TNF-α, IL-1β, IL-6 and IL-8 by ELISA as described by the manufacturer. (OptiEIA ELISA sets, BD Biosciences, Pharmingen). The 50% inhibitory concentration (IC50) values were calculated by a nonlinear regression method using GraphPad software (Prism 3.03).
# PDE4 = PDE4 inhibition, cAMP fluorescence assay in salbutamol-stimulated U937 cells; assay type: cell-based, human; conditions: U937 cells, salbutamol 1 μM
# Experimental: Culture medium was changed every 2-3 days and always 24 hours before harvest. RPMI medium, FBS and Salbutamol were purchased from Sigma-Aldrich (USA). Rolipram was synthesized in the Medicinal Chemistry Department, Piramal Life Sciences Limited.
# Rolipram was used as a standard (0.3, 1 and 3 μM). […] Fluorescence measurements were taken with Polarstar Optima (BMG Labtech-Germany).
# Relative fluorescence was calculated using the following formula where: RF=Relative Fluorescence, Fo=fluorescent intensity of the blank or buffer control, F=fluorescence of cAMP or sample: RF=(Fo−F)/Fo
# A standard curve was plotted using the RF values of the given standards and the values of cAMP corresponding to the test compounds were determined using the standard plot.
# [1] = tested on: arthritic (CIA) DBA/1J mice; assay: Collagen induced arthritis in mouse; assay type: in vivo; conditions: Enbrel 3 mg/kg s.c. once daily, 23 days
# Experimental: The assay was designed as in reference, J. Exp. Med., 1985, 162, 637-646, the disclosure of which is incorporated herein by reference for the teaching of the assay.
# Male DBA/1J mice (originally procured from Jackson Laboratories, USA), aged 8-10 weeks were immunized with an emulsion equivalent to 200 μg of type II collagen in Freund's Complete Adjuvant, injected intradermally at the base of the tail. A booster shot with the same emulsion was given 21 days later. A group of naïve mice was maintained alongside.
# From day 23 to day 56, mice were examined daily once for the signs of rheumatoid arthritis, using the Articular Index and paw thickness as parameters. Articular Index scoring was performed employing the following criteria:
# Mice with a minimum hind paw score of 2 were inducted into the study.
# Mice were randomized into the various study groups and orally administered the vehicle (0.5% CMC, 1 ml/kg), test compound (compound of example 3, 50 mg/kg twice daily) and standard compound (Enbrel, 3 mg/kg, s.c., once daily). […] The dosing of the compounds was done for 23 days.
# The following parameters were observed and recorded daily, • 1. Body weight • 2. Articular index • 3. Paw thickness in mm using a tension free caliper • 4. Any significant observation regarding the condition of the animal. […]
# The results are graphically depicted in FIG. 3 (Articular index versus days of treatment) and FIG. 4 (Paw thickness versus days of treatment). Data obtained during the course of this study (articular index and paw thickness) was statistically evaluated by applying Mann-Whitney U test.
# Mice were humanely euthanized and the hind paws were harvested from each animal, fixed in 10% neutral buffered formalin, decalcified in 5% formic acid and embedded in paraffin. Section […] were stained with either hematoxylin and eosin or safranin 0 and evaluated microscopically. Histopathological changes were scored as follows: mild (score=1), moderate (score=2) or severe (score=3) for the parameters of cellular infiltration, bone erosions and cartilage damage, graded separately. […]
Molecule,IC50 (TNF-α) [nM],further results
"CN1CC[C@@H](c2c(O)cc(O)c3c(=O)cc(-c4ccc([N+](=O)[O-])cc4Cl)oc23)[C@@H]1CO [Compound of example 5, (+)-trans-2-(2-Chloro-4-nitro-phenyl)-5,7-dihydroxy-8-(2-hydroxymethyl-1-methyl-pyrrolidin-3-yl)-chromen-4-one hydrochloride]",400,
"CN1CC[C@@H](c2c(O)cc(O)c3c(=O)cc(-c4ccccc4Cl)oc23)[C@@H]1CO [Compound of example 7, (+)-trans-2-(2-Chloro-phenyl)-5,7-dihydroxy-8-(2-hydroxymethyl-1-methyl-pyrrolidin-3-yl)-chromen-4-one hydrochloride]",200,
"CN1CC[C@@H](c2c(O)cc(O)c3c(=O)cc(-c4cc(F)ccc4Br)oc23)[C@@H]1CO [Compound of example 9, (+)-trans-2-(2-Bromo-5-fluoro-phenyl)-5,7-dihydroxy-8-(2-hydroxymethyl-1-methyl-pyrrolidin-3-yl)-chromen-4-one hydrochloride]",900,
"CN1CC[C@@H](c2c(O)cc(O)c3c(=O)cc(-c4ccc(C#N)cc4Cl)oc23)[C@@H]1CO [Compound of example 12, (+)-trans-2-(2-Chloro-4-cyano-phenyl)-5,7-dihydroxy-8-(2-hydroxymethyl-1-methyl-pyrrolidin-3-yl)-chromen-4-one hydrochloride]",1500,
"CN1CC[C@@H](c2c(O)cc(O)c3c(=O)cc(-c4ccc([N+](=O)[O-])cc4Br)oc23)[C@@H]1CO [Compound of example 16, (+)-trans-2-(2-Bromo-4-nitro-phenyl)-5,7-dihydroxy-8-(2-hydroxymethyl-1-methyl-pyrrolidin-3-yl)-chromen-4-one hydrochloride]",300,
"CN1CC[C@@H](c2c(O)cc(O)c3c(=O)cc(-c4ccc(Cl)cc4Cl)oc23)[C@@H]1CO [Compound of example 18, (+)-trans-2-(2,4-Dichloro-phenyl)-5,7-dihydroxy-8-(2-hydroxymethyl-1-methyl-pyrrolidin-3-yl)-chromen-4-one hydrochloride]",300,
"CN1CC[C@@H](c2c(O)cc(O)c3c(=O)cc(-c4cc(F)ccc4Cl)oc23)[C@@H]1CO [Compound of example 20, (+)-trans-2-(2-Chloro-5-fluoro-phenyl)-5,7-dihydroxy-8-(2-hydroxymethyl-1-methyl-pyrrolidin-3-yl)-chromen-4-one hydrochloride]",700,
"CN1CC[C@@H](c2c(O)cc(O)c3c(=O)cc(-c4cccs4)oc23)[C@@H]1CO [Compound of example 22, (+)-trans-5,7-Dihydroxy-8-(2-hydroxymethyl-1-methyl-pyrrolidin-3-yl)-2-thiophen-2-yl-chromen-4-one hydrochloride]",2300,
"CN1CC[C@@H](c2c(O)cc(O)c3c(=O)cc(-c4cccc([N+](=O)[O-])c4)oc23)[C@@H]1CO [Compound of example 26, (+)-trans-5,7-dihydroxy-8-(2-hydroxymethyl-1-methyl-pyrrolidin-3-yl)-2-(3-nitrophenyl)-chromen-4-one hydrochloride]",400,
"CN1CC[C@@H](c2c(O)cc(O)c3c(=O)cc(-c4cccc(Br)c4Cl)oc23)[C@@H]1CO [Compound of example 30, (+)-trans-2-(3-Bromo-2-chloro-phenyl)-5,7-dihydroxy-8-(2-hydroxymethyl-1-methyl-pyrrolidin-3-yl)-chromen-4-one hydrochloride]",4100,
"CN1CC[C@@H](c2c(O)cc(O)c3c(=O)cc(-c4cccc(Cl)c4)oc23)[C@@H]1CO [Compound of example 34, (+)-trans-2-(3-Chloro-phenyl)-5,7-dihydroxy-8-(2-hydroxymethyl-1-methyl-pyrrolidin-3-yl)-chromen-4-one hydrochloride]",2500,
"CN1CC[C@@H](c2c(O)cc(O)c3c(=O)cc(-c4cccc([N+](=O)[O-])c4Cl)oc23)[C@@H]1CO [Compound of example 38, (+)-trans-2-(2-Chloro-3-nitro-phenyl)-5,7-dihydroxy-8-(2-hydroxymethyl-1-methyl-pyrrolidin-3-yl)-chromen-4-one hydrochloride]",1300,
"CN1CC[C@@H](c2c(O)cc(O)c3c(=O)cc(-c4cccc(C(F)(F)F)c4Cl)oc23)[C@@H]1CO [Compound of example 42, (+)-trans-2-(2-Chloro-3-trifluoromethyl-phenyl)-5,7-dihydroxy-8-(2-hydroxymethyl-1-methyl-pyrrolidin-3-yl)-chromen-4-one hydrochloride]",2400,
"Cc1cccc(-c2cc(=O)c3c(O)cc(O)c([C@@H]4CCN(C)[C@H]4CO)c3o2)c1Cl [Compound of example 46, (+)-trans-2-(2-Chloro-3-methyl-phenyl)-5,7-dihydroxy-8-(2-hydroxymethyl-1-methyl-pyrrolidin-3-yl)-chromen-4-one hydrochloride]",500,
"CN1CC[C@@H](c2c(O)cc(O)c3c(=O)cc(-c4cccc(Cl)c4Cl)oc23)[C@@H]1CO [Compound of example 58, (+)-trans-2-(2,3-Dichloro-phenyl)-5,7-dihydroxy-8-(2-hydroxymethyl-1-methyl-pyrrolidin-3-yl)-chromen-4-one hydrochloride]",1500,
"CN1CC[C@@H](c2c(O)cc(O)c3c(=O)cc(-c4cccc(I)c4Cl)oc23)[C@@H]1CO [Compound of example 62, (+)-trans-2-(2-Chloro-3-iodo-phenyl)-5,7-dihydroxy-8-(2-hydroxymethyl-1-methyl-pyrrolidin-3-yl)-chromen-4-one hydrochloride]",1300,
"CC(C)Nc1cccc(-c2cc(=O)c3c(O)cc(O)c([C@@H]4CCN(C)[C@H]4CO)c3o2)c1Cl [Compound of example 66, (+)-trans-2-(2-Chloro-3-isopropylamino-phenyl)-5,7-dihydroxy-8-(2-hydroxymethyl-1-methyl-pyrrolidin-3-yl)-chromen-4-one hydrochloride]",900,
"COc1ccc(C2CNC(=O)C2)cc1OC1CCCC1 (stereo not drawn) [Rolipram, reference compound]",,Relative Fluorescence (RF) (PDE4; concentration 0.3 μM): 1.39; Relative Fluorescence (RF) (PDE4; concentration 1 μM): 1.56; Relative Fluorescence (RF) (PDE4; concentration 3 μM): 1.73
Enbrel,,Severity of disease by articular index and paw thickness [1]: significant reduction in the severity of the disease
